The source of these data is PubChem BioAssay (NCI).

Where “and” joins values, the source holds several entries; their conditions need not be identical. Equal entries are not always repeated.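 A five-concentration, 48-hour dose response in 96-well plates underlies each endpoint, interpolated linearly between surrounding concentrations. Abbreviation: GI50, concentration required for 50% inhibition of growth. At the TGI there is no net growth.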 Some results are limits rather than exact numbers.

Among the test systems are CAKI-1 renal; SF-539 CNS; LOX IMVI melanoma; UACC-257 melanoma; HOP-62 NSCLC; U251 CNS; PC-3 prostate; COLO 205 colon; T-47D breast; SR leukemia.
Holding throughout (experiment): NCI-60 cell line screen, 48 h

Regarding `NC(=O)c1ccc2nc(-c3ccc(Oc4ccc(Cl)cc4)cc3)[nH]c2c1`, the GI50 with CAKI-1 renal is 6.4 µM and 16.5 µM; in the experiment with SF-539 CNS, 27.6 µM and 13 µM; in the experiment with LOX IMVI melanoma, 17.9 µM and 15.6 µM; in the experiment on UACC-257 melanoma it was 66.7 µM and 18.4 µM; with HOP-62 NSCLC it was 48.4 µM and 13.7 µM; in the experiment on U251 CNS, 56.6 µM and 9.01 µM. For the same molecule, the GI50 was 55.3 µM and 11.2 µM in the experiment on PC-3 prostate; 22.3 µM and 20.8 µM with COLO 205 colon; 17.9 µM and 20.6 µM in the experiment on SR leukemia. Moreover, the TGI in the experiment on CAKI-1 renal was 39.6 µM and 49.8 µM; in the experiment on SF-539 CNS, 75 µM and 28 µM; in the experiment on LOX IMVI melanoma, 75 µM and 36.7 µM; with UACC-257 melanoma it was 75 µM and 33.5 µM; in the experiment on HOP-62 NSCLC it was 75 µM and 36.1 µM; in the experiment on U251 CNS, 75 µM and 22.6 µM. The TGI with PC-3 prostate was 75 µM and 25.5 µM; in the experiment with COLO 205 colon, 75 µM and 38.9 µM; with T-47D breast it was > 75 µM and 20.7 µM; in the experiment with SR leukemia it was 61.5 µM and 57.3 µM.

For `Cn1ccnc1C(=O)/C=C/c1ccccc1`, the GI50 in the experiment with CAKI-1 renal is 3.88 µM; in the experiment on SF-539 CNS, 2.18 µM; in the experiment with LOX IMVI melanoma, 2.99 µM; with UACC-257 melanoma, 4.07 µM; in the experiment on HOP-62 NSCLC, 4.44 µM; with U251 CNS, 3.21 µM. For the same molecule, the GI50 is 12.5 µM with PC-3 prostate, 5.38 µM with COLO 205 colon, 2.78 µM in the experiment on T-47D breast and 1.38 µM with SR leukemia. Besides, the TGI is 19 µM in the experiment with CAKI-1 renal; 4.78 µM in the experiment on SF-539 CNS; 14.3 µM in the experiment with LOX IMVI melanoma; 16.2 µM in the experiment with UACC-257 melanoma; 14.4 µM in the experiment on HOP-62 NSCLC; 13.9 µM with U251 CNS. For the same molecule, the TGI in the experiment with PC-3 prostate was 37.4 µM; in the experiment on COLO 205 colon, 18 µM; in the experiment with T-47D breast, 7.35 µM; in the experiment on SR leukemia, 6.05 µM.

For the molecule `COc1ccc2c(c1)n([O-])c1ccccc1[n+]2=O`, the GI50 in the experiment with CAKI-1 renal is 25.3 µM and 8 µM; in the experiment on SF-539 CNS, 46.5 µM and 17.4 µM; in the experiment on LOX IMVI melanoma, 29.5 µM and 7.2 µM; in the experiment with UACC-257 melanoma, 46.5 µM and 17.9 µM; in the experiment on PC-3 prostate it was 91.9 µM and 28.3 µM; with SR leukemia it was 7.56 µM and 2.42 µM. In addition, the TGI in the experiment on CAKI-1 renal is > 100 µM and 27 µM; in the experiment on SF-539 CNS, > 100 µM and 45.9 µM; in the experiment with LOX IMVI melanoma it was > 100 µM and 31.6 µM; in the experiment on UACC-257 melanoma, > 100 µM and 40.2 µM; in the experiment with HOP-62 NSCLC it was over 100 µM; in the experiment with U251 CNS, over 100 µM. Moreover, the TGI in the experiment with PC-3 prostate was > 100 µM and 73.1 µM; in the experiment with COLO 205 colon, > 100 µM and 74.7 µM; with T-47D breast, > 100 µM and 22.6 µM; in the experiment on SR leukemia, 59.6 µM and 12.2 µM.

For the molecule `Fc1ccc(Nc2nc3nonc3nc2Nc2ccc(F)cc2)cc1`, the GI50 in the experiment on CAKI-1 renal is 0.35 µM; with SF-539 CNS it was 0.486 µM; with LOX IMVI melanoma, 0.469 µM; in the experiment with UACC-257 melanoma, 0.401 µM; in the experiment with HOP-62 NSCLC, 0.319 µM; in the experiment on U251 CNS, 0.387 µM. In addition, the GI50 in the experiment on PC-3 prostate is 0.28 µM; with COLO 205 colon, 0.342 µM; with T-47D breast, 0.221 µM; with SR leukemia, 0.447 µM. The TGI is 10.8 µM in the experiment with CAKI-1 renal; 11.6 µM in the experiment on SF-539 CNS; 4.29 µM in the experiment on LOX IMVI melanoma; 3.16 µM in the experiment on UACC-257 melanoma; 2.13 µM in the experiment with HOP-62 NSCLC; 10.8 µM in the experiment on U251 CNS. The TGI was 11.2 µM in the experiment on PC-3 prostate, 1.43 µM with COLO 205 colon, 0.775 µM with T-47D breast and 2.75 µM with SR leukemia.

With `COc1cc(Nc2ccnc(NCCCNc3ccnc4cc(Cl)ccc34)n2)cc(OC)c1`, the GI50 was 1.62 µM in the experiment with CAKI-1 renal; 1.58 µM in the experiment on SF-539 CNS; 1.37 µM in the experiment on LOX IMVI melanoma; 1.84 µM in the experiment with UACC-257 melanoma; 1.75 µM with HOP-62 NSCLC; 1.38 µM in the experiment on U251 CNS. Moreover, the GI50 in the experiment on PC-3 prostate was 2.68 µM; in the experiment on COLO 205 colon, 1.38 µM; with T-47D breast it was 1.89 µM; in the experiment on SR leukemia, 0.423 µM. The TGI turned out to be 3.26 µM in the experiment with CAKI-1 renal; 3.09 µM with SF-539 CNS; 2.82 µM in the experiment with LOX IMVI melanoma; 3.44 µM in the experiment on UACC-257 melanoma; 5.12 µM in the experiment with HOP-62 NSCLC; 2.75 µM in the experiment with U251 CNS. Moreover, the TGI was found to be 14.2 µM with PC-3 prostate, 2.9 µM with COLO 205 colon, 4.81 µM in the experiment with T-47D breast and 2.08 µM in the experiment on SR leukemia.

Take `Nc1nc(-c2ccccc2)nc(N)c1N=O`: the GI50 is 4.5 µM with CAKI-1 renal; 5.69 µM in the experiment on SF-539 CNS; 3.14 µM with LOX IMVI melanoma; 8.75 µM in the experiment with UACC-257 melanoma; 12.8 µM in the experiment with HOP-62 NSCLC; 5.13 µM in the experiment on U251 CNS. In addition, the GI50 was 18.6 µM with PC-3 prostate, 2.59 µM with COLO 205 colon, 4.63 µM in the experiment with T-47D breast and 3.63 µM with SR leukemia. Further, the TGI came out at 36.3 µM in the experiment on CAKI-1 renal; 19.5 µM in the experiment with SF-539 CNS; 13 µM in the experiment on LOX IMVI melanoma; 44.3 µM in the experiment with UACC-257 melanoma; 30.5 µM in the experiment with HOP-62 NSCLC; 17.9 µM in the experiment with U251 CNS. Moreover, the TGI with PC-3 prostate was 66.3 µM; in the experiment on COLO 205 colon, 8.45 µM; with T-47D breast, 23.1 µM; with SR leukemia it was 54.9 µM.

In the case of `Cc1cc(Cl)ccc1NC(=O)c1cc2ccccc2cc1O`, the GI50 is 0.381 µM in the experiment on CAKI-1 renal; 0.783 µM in the experiment with SF-539 CNS; 0.539 µM in the experiment with LOX IMVI melanoma; 0.611 µM in the experiment with UACC-257 melanoma; 2.68 µM with HOP-62 NSCLC; 0.503 µM in the experiment on U251 CNS. Further, the GI50 is 0.875 µM in the experiment on PC-3 prostate, 6.46 µM in the experiment on COLO 205 colon, 0.852 µM with T-47D breast and 0.443 µM in the experiment with SR leukemia. Also, the TGI with CAKI-1 renal was over 100 µM; in the experiment with SF-539 CNS, over 100 µM; in the experiment on LOX IMVI melanoma it was over 100 µM; in the experiment with UACC-257 melanoma, 3.84 µM; in the experiment with HOP-62 NSCLC it was over 100 µM; in the experiment on U251 CNS, over 27.5 µM. The TGI with PC-3 prostate is 28.4 µM; with COLO 205 colon, 30.5 µM; in the experiment with T-47D breast, over 26.8 µM; in the experiment on SR leukemia, 8.77 µM.

As for `NC(=O)c1cc(-c2ccc(F)cc2)cc(-c2ccncc2)c1N`, the GI50 with CAKI-1 renal was 13.7 µM; in the experiment with SF-539 CNS it was over 25 µM; with LOX IMVI melanoma it was over 25 µM; in the experiment on UACC-257 melanoma, over 25 µM; in the experiment with HOP-62 NSCLC, over 25 µM; in the experiment with U251 CNS, over 25 µM. The GI50 in the experiment on PC-3 prostate, with COLO 205 colon, with T-47D breast and in the experiment on SR leukemia was over 25 µM in each case. Further, the TGI in the experiment on CAKI-1 renal, in the experiment with SF-539 CNS, in the experiment on LOX IMVI melanoma, with UACC-257 melanoma, with HOP-62 NSCLC and in the experiment with U251 CNS was over 25 µM throughout. Besides, the TGI with PC-3 prostate, with COLO 205 colon, in the experiment on T-47D breast and in the experiment on SR leukemia was over 25 µM throughout.

For the molecule `CCC1CCc2nc3sc(C(=O)Nc4cccc(F)c4)c(N)c3cc2C1` (stereo not given), the GI50 in the experiment on CAKI-1 renal was 0.867 µM; in the experiment with SF-539 CNS it was over 100 µM; with LOX IMVI melanoma it was over 100 µM; in the experiment on UACC-257 melanoma it was over 100 µM; in the experiment with HOP-62 NSCLC, over 100 µM; in the experiment with U251 CNS, over 100 µM. Moreover, the GI50 in the experiment with PC-3 prostate was over 100 µM; in the experiment with COLO 205 colon it was 51.8 µM; in the experiment on T-47D breast it was over 100 µM; in the experiment with SR leukemia, 0.379 µM. Besides, the TGI with CAKI-1 renal, with SF-539 CNS, in the experiment with LOX IMVI melanoma, with UACC-257 melanoma, in the experiment with HOP-62 NSCLC and in the experiment with U251 CNS was over 100 µM each time. Further, the TGI with PC-3 prostate, in the experiment on COLO 205 colon, in the experiment with T-47D breast and in the experiment with SR leukemia was over 100 µM each time.

`COc1ccc(OC)c(/C=C(/C)[N+](=O)[O-])c1`: the GI50 was 1.29 µM with CAKI-1 renal; 2.29 µM in the experiment with SF-539 CNS; 1.34 µM in the experiment with LOX IMVI melanoma; 1.69 µM in the experiment on UACC-257 melanoma; 2.31 µM with HOP-62 NSCLC; 1.68 µM in the experiment on U251 CNS. Moreover, the GI50 in the experiment on PC-3 prostate is 2.4 µM; with COLO 205 colon it was 1.92 µM; in the experiment on T-47D breast, 1.16 µM; in the experiment with SR leukemia, 0.316 µM. The TGI in the experiment with CAKI-1 renal was found to be 2.77 µM; with SF-539 CNS, 5.04 µM; with LOX IMVI melanoma, 3.06 µM; with UACC-257 melanoma it was 3.22 µM; with HOP-62 NSCLC, 4.86 µM; in the experiment on U251 CNS, 3.18 µM. Besides, the TGI in the experiment with PC-3 prostate was 5.63 µM; with COLO 205 colon, 3.63 µM; with T-47D breast, 2.87 µM; in the experiment with SR leukemia, over 100 µM.

As for `COc1ccc(-c2nc3ccccn3c2/C=C/C(=O)c2cc(OC)c(OC)c(OC)c2)cc1`, the GI50 was 8.33 µM in the experiment with CAKI-1 renal; 2.39 µM with SF-539 CNS; 6.05 µM with LOX IMVI melanoma; 5.85 µM in the experiment on UACC-257 melanoma; 36.2 µM with HOP-62 NSCLC; 3 µM with U251 CNS. For the same molecule, the GI50 is 19.8 µM in the experiment on PC-3 prostate, 3.5 µM in the experiment on COLO 205 colon, 2.59 µM in the experiment on T-47D breast and 3.71 µM with SR leukemia. Further, the TGI with CAKI-1 renal was over 100 µM; in the experiment on SF-539 CNS, 11.5 µM; with LOX IMVI melanoma, over 100 µM; with UACC-257 melanoma it was over 100 µM; in the experiment with HOP-62 NSCLC, over 100 µM; in the experiment with U251 CNS, 30.6 µM. The TGI in the experiment on PC-3 prostate was over 100 µM; in the experiment on COLO 205 colon it was 13.5 µM; with T-47D breast, 14 µM; in the experiment with SR leukemia, over 100 µM.
